Converted amounts (≈) assume the structure as drawn. Structures can show the parent of a compound that is named as a salt.
Tests used:
[1] = experimental water solubility when available in the scientific literature; cited from earlier work
[2] = system: vitreous of a Male New Zealand white rabbit; assay: Intravitreal injection of micronized axitinib suspension, histology after 1 month; type: in vivo; settings: for Inflammation around the injected material / Inflammation within the vitreous Chamber: semi-quantitative scale 0-5
Experimental: (§1) 50 μL of the 2% axitinib suspension was then drawn into a 100 μL luer lock Hamilton syringe using a 21G 1.5″ needle. The needle was swapped for a fresh 27G ½″ TW needle (Nipro). The 50 μL suspension was then injected at the 6 o'clock position within the vitreous of a Male New Zealand white rabbit. After 1 month, eyes were explanted and prepared for histology.
(§2) Two eyes were fixed (Davidson's), blocked, sectioned, mounted and stained for microscopical examination by a board certified veterinary pathologist. Eyes were sectioned according to the following scheme: A suture had been placed at the 12 o'clock position for orientation at harvest. Typically eyes were trimmed in half in the plane from 12 o'clock to 6 o'clock through the lens and optic nerve along the midline. This captures as many optic structures in one plane as is possible. The trimmed eyes were examined grossly and abnormalities noted. Each half of the globe trimmed was embedded in its own cassette. Cassette A is always the nasal half of the eye, and cassette B is always the temporal half of the eye. For each block 6 hematoxylin and eosin (H&E)-stained slides were prepared that were separated by 1000 microns (1 mm). Each slide contained 2 serial sections of eye on it. All slides were evaluated by a board-certified veterinary pathologist at Charter Preclinical Services. Tissues were scored on a semi-quantitative scale from 0-5 for any abnormalities.
Eyes were scored in several categories for signs of inflammation or other adverse findings. Inflammation scores were as follows:
1—Rare foci of change; minimal
2—Mild diffuse change or more pronounced focal change
3—Moderate diffuse change
5 μL of the 4% Axitinib suspension was then drawn into a 100 μL luer lock Hamilton syringe using a 21G 1.5″ needle. The needle was swapped for a fresh 27G ½″ TW needle (Nipro). The 50 μL suspension was then injected at the 6 o'clock position within the vitreous of a Male New Zealand white rabbit. After 1 month, eyes were explanted and prepared for histology.
as §2, with “(Davidson's fixative solution),” for “(Davidson's),”
Eyes were scored in several categories for signs of inflammation or other adverse findings as described above.
as §1, with “the 8%” for “the 2%”, “TW Nipro needle.” for “TW needle (Nipro).”, “of both eyes in” for “of a”

[3] = Steroid solubility studies in dissolution media (PBS, pH 6.3), Example 10; type: physicochemical; settings: for solubility at 68 h: pH 6.3, aqueous buffer, thermodynamic from solid
Experimental: Solubility of the steroid candidates was assessed in dissolution media (PBS, pH 6.3) at ambient temperatures for 68 hours. UV detection of soluble steroid was determined relative to a standard curve.

[4] = statement in words; cited from earlier work

| Compound | Experimental Solubility [1] | further results |
| --- | --- | --- |
| CNC(=O)c1ccccc1Sc1ccc2c(/C=C/c3ccccn3)n[nH]c2c1 [Axitinib] | 1 µg/mL | Other adverse findings (retina, sclera, lens, etc.) ([2]; 100 μg): none; Inflammation around the injected material ([2]; 100 μg): 0.04±0.29; Inflammation within the vitreous Chamber ([2]; 100 μg): 0.0±0.0; Other adverse findings (retina, sclera, lens, etc.) ([2]; 200 μg): none; Inflammation around the injected material ([2]; 200 μg): 0.08±0.37; Inflammation within the vitreous Chamber ([2]; 200 μg): 0.14±0.35; Other adverse findings (retina, sclera, lens, etc.) ([2]; 400 ug, both eyes): none; Inflammation around the injected material ([2]; 400 ug, both eyes): 0.14±0.35; Inflammation within the vitreous Chamber ([2]; 400 ug, both eyes): 0.14±0.35 |
| CN1CCCC(n2nc(Cc3ccc(Cl)cc3)c3ccccc3c2=O)CC1 (centres unmarked) [Azelastine Base] | 50 µg/mL | – |
| CN1CCCC(n2nc(Cc3ccc(Cl)cc3)c3ccccc3c2=O)CC1.O=C(O)c1cc2ccccc2c(Cc2c(O)c(C(=O)O)cc3ccccc23)c1O [Azelastine Embonate] | 15 µg/mL | – |
| CC[C@H]1OC(=O)[C@H](C)[C@@H](O[C@H]2C[C@@](C)(OC)[C@@H](O)[C@H](C)O2)[C@H](C)[C@@H](O[C@@H]2O[C@H](C)C[C@H](N(C)C)[C@H]2O)[C@](C)(O)C[C@@H](C)CN(C)[C@H](C)[C@@H](O)[C@]1(C)O [Azithromycin] | 69 µg/mL | – |
| N[C@@H]1CCCCN(c2c(F)cc3c(=O)c(C(=O)O)cn(C4CC4)c3c2Cl)C1 [Besifloxacin Base] | 90 µg/mL | – |
| C[C@H]1C[C@H]2[C@@H]3CCC4=CC(=O)C=C[C@]4(C)[C@@]3(F)[C@@H](O)C[C@]2(C)[C@@]1(O)C(=O)COP(=O)([O-])[O-].[Na+].[Na+] [Betamethasone Sodium Phosphate] | 67 µg/mL | Max Solubility in PBS, pH 6.3 ([3]; PBS pH 6.3, ambient temperatures, 68 hours, UV detection): > 100,000 μg/mL; Solubility in water, descriptive ([3]; printed beside the Example 10 value): freely soluble |
| Nc1c(CC(=O)O)cccc1C(=O)c1ccc(Br)cc1 [Bromfenac] | 53,000 μg/mL | – |
| CCCC1O[C@@H]2C[C@H]3[C@@H]4CCC5=CC(=O)C=C[C@]5(C)[C@H]4[C@@H](O)C[C@]3(C)[C@]2(C(=O)CO)O1 (some centres unmarked) [Budesonide] | 24 µg/mL | solubility at 68 h [3]: 30 µg/mL (≈ 69.7 µM) |
| C[C@@H]1C[C@H]2[C@@H]3CCC4=CC(=O)C=C[C@]4(C)[C@@]3(F)[C@@H](O)C[C@]2(C)[C@@]1(O)C(=O)CO [Dexamethasone alcohol] | 89 µg/mL | – |
| O=C(O)Cc1ccccc1Nc1c(Cl)cccc1Cl [Diclofenac] | 600 µg/mL | – |
| CO[C@H]1C[C@@H]2CC[C@@H](C)[C@@](O)(O2)C(=O)C(=O)N2CCCC[C@H]2C(=O)O[C@H]([C@H](C)C[C@@H]2CC[C@@H](OCCO)[C@H](OC)C2)CC(=O)[C@H](C)/C=C(\C)[C@@H](O)[C@@H](OC)C(=O)[C@H](C)C[C@H](C)/C=C/C=C/C=C/1C [Everolimus] | 10 µg/mL | – |
| CC1(C)O[C@@H]2C[C@H]3[C@@H]4C[C@H](F)C5=CC(=O)C=C[C@]5(C)[C@H]4[C@@H](O)C[C@]3(C)[C@]2(C(=O)CO)O1 [Flunisolide, Anhydrous, USP, Flunisolide] | – | solubility at 68 h [3]: 90 µg/mL (≈ 207 µM) |
| CC(C(=O)O)c1ccc(-c2ccccc2)c(F)c1 (centres unmarked) [Flurbiprofen Sodium] | 61 µg/mL | – |
| CCC(=O)O[C@]1(C(=O)SCF)[C@H](C)C[C@H]2[C@@H]3C[C@H](F)C4=CC(=O)C=C[C@]4(C)[C@@]3(F)[C@@H](O)C[C@@]21C [Fluticasone Propionate] | 1 µg/mL | – |
| COc1c(N2CCNC(C)C2)c(F)cc2c(=O)c(C(=O)O)cn(C3CC3)c12 (centres unmarked) [Gatifloxacin] | 60,000 μg/mL | – |
| CN1CCC(=C2c3ccccc3CC(=O)c3sccc32)CC1 [Ketotifen base] | 15 µg/mL | – |
| CN1CCC(=C2c3ccccc3CC(=O)c3sccc32)CC1 [Ketotifen fumarate] | 10,000 μg/mL | – |
| CC(C)OC(=O)CCC/C=C\C[C@@H]1[C@@H](CC[C@@H](O)CCc2ccccc2)[C@H](O)C[C@@H]1O [Latanoprost] | – | solubility in aqueous solutions [4]: relatively low solubility |
| CCOC(=O)O[C@]1(C(=O)OCCl)CC[C@H]2[C@@H]3CCC4=CC(=O)C=C[C@]4(C)[C@H]3[C@@H](O)C[C@@]21C [Loteprednol etabonate] | 5 µg/mL | – |
| C[C@@H]1C[C@H]2[C@@H]3CCC4=CC(=O)C=C[C@]4(C)[C@@]3(Cl)[C@@H](O)C[C@]2(C)[C@@]1(OC(=O)c1ccco1)C(=O)CCl [Mometasone furoate] | 20 µg/mL | – |
| CO[C@H]1C[C@@H]2CC[C@@H](C)[C@@](O)(O2)C(=O)C(=O)N2CCCC[C@H]2C(=O)O[C@H]([C@H](C)C[C@@H]2CC[C@@H](O)[C@H](OC)C2)CC(=O)[C@H](C)/C=C(\C)[C@@H](O)[C@@H](OC)C(=O)[C@H](C)C[C@H](C)/C=C/C=C/C=C/1C [Sirolimus] | <100 µg/mL | – |
| CCN(CC)CCNC(=O)c1c(C)[nH]c(/C=C2\C(=O)Nc3ccc(F)cc32)c1C [Sunitinib Malate] | 25,000 μg/mL | – |
| C=CC[C@@H]1/C=C(\C)C[C@H](C)C[C@H](OC)[C@H]2O[C@@](O)(C(=O)C(=O)N3CCCC[C@H]3C(=O)O[C@H](/C(C)=C/[C@@H]3CC[C@@H](O)[C@H](OC)C3)[C@H](C)[C@@H](O)CC1=O)[C@H](C)C[C@@H]2OC [Tacrolimus] | 8 µg/mL | – |
| CC(C)(C)NC[C@H](O)COc1nsnc1N1CCOCC1 [Timolol Maleate] | 2,800 μg/mL | – |
| CC(C)OC(=O)CCC/C=C\C[C@@H]1[C@@H](/C=C/[C@@H](O)COc2cccc(C(F)(F)F)c2)[C@H](O)C[C@@H]1O [Travoprost] | 44 µg/mL | – |
| CC1(C)O[C@@H]2C[C@H]3[C@@H]4CCC5=CC(=O)C=C[C@]5(C)[C@@]4(F)[C@@H](O)C[C@]3(C)[C@]2(C(=O)CO)O1 [Triamcinolone Acetonide] | – | solubility at 68 h [3]: 20 µg/mL (≈ 46 µM) |
| O=c1[nH]c(=O)n([C@H]2C[C@H](O)[C@@H](CO)O2)cc1C(F)(F)F [Trifluridine] | 1,500 μg/mL | – |
| COc1cc2c(Nc3ccc(Br)cc3F)ncnc2cc1OCC1CCN(C)CC1 [Vandetanib (ZD6474), Vandetanib] | 8 µg/mL | – |
| Aflibercept | >100,000 μg/mL | – |
